Patent US20130123264A1, “COMPOSITIONS AND METHODS FOR TREATMENT OF INFLAMMATORY BOWEL DISORDERS AND INTESTINAL CANCERS” (priority 2011, published 2013)
≈ marks a conversion by molar mass, not a printed value. Entries after “also recorded” stand apart in the source; their conditions may differ.

Columns and labels:
[1] = system: CD1 mouse colon explants; test: cGMP content of mucosa from mouse colon explants incubated in vitro (ELISA); assay type: cell-based; conditions: 2 hours
Method: The cGMP levels were standardized for protein content using OD280 of the extracts. […] Error bars indicate SEM. Asterisks indicate significance relative to control (p<0.05). CD1 mouse colon explants were incubated with PDE5 inhibitors in vitro. After 2 hours, the mucosa was harvested for analysis of cGMP content by ELISA (FIG. 10A).

[2] = system: colon mucosa; test: cGMP content of colon mucosa after intraperitoneal injection (ELISA); assay type: in vivo, mouse
Method: The cGMP levels were standardized for protein content using OD280 of the extracts. […] Error bars indicate SEM. Asterisks indicate significance relative to control (p<0.05). […] FIG. 16A is a bar graph of ileum, proximal and distal tissue versus cGMP (pmol/mg protein). Mice were treated by intraperitoneal injection with PBS in vehicle (ctrl) or Vardenafil in vehicle (Vard.) (equivalence to human dose based on body weight). Colon mucosa was harvested 3 hrs later for analysis of cGMP content with ELISA kit. cGMP level was measured relative to total protein loading. […] Same WT/KO tissues were analyzed for apoptosis (TUNEL). Error bars indicate SEM and asterisks show significance (p<0.05). […] The mice were sacrificed 4 hours later and colon mucosa was harvested for analysis of cGMP content by ELISA. The cGMP levels were standardized for protein content using OD280 of the extracts. The error bars show SEM (FIG. 10B).

[3] = system: colon mucosa; test: Colon mucosa homeostasis after 7 days of treatment (TUNEL, BrdU/Ki-67, goblet cell staining); assay type: in vivo, mouse; conditions: wild type mice, 5 mg/kg IP b.i.d. 7 days; for epithelial cell death / apoptosis (TUNEL) in colon / mature goblet cell numbers in colon: 5 mg/kg
Description: Sections were stained for apoptotic cells using TUNEL in control and treated. TUNEL positive cells were found. […] FIG. 12B Quantitation of cell proliferation in the colon mucosa by BrdU incorporation. Asterisks in FIGS. 12A and 12B show statistical significance, p<0.05 of treated relative to control.
Mature goblet cells were counted in different sections of the colon following staining with Alcian blue-periodic acid schiff. FIG. 11A: Different regions of the gut (ilium of small intestine, ascending and descending portions of the colon). FIG. 11B: Relative mature goblet cell number in different sections of the proximal colon. Asterisks indicate significance (p<0.05, n=3).
Immunohistochemistry of tissue samples from Vardenafil treated and control mice was performed.

[4] = system: colon mucosa of Prkg2−/− mice; test: Colon mucosa homeostasis after 7 days of treatment in PKG2 knockout animals; assay type: in vivo, mouse
Method: FIG. 16A is a bar graph of ileum, proximal and distal tissue versus cGMP (pmol/mg protein). […] Colon mucosa was harvested 3 hrs later for analysis of cGMP content with ELISA kit. cGMP level was measured relative to total protein loading. […] Same WT/KO tissues were analyzed for apoptosis (TUNEL). Error bars indicate SEM and asterisks show significance (p<0.05).
FIGS. 17A, 17B, 17C, and 17D are line graphs of ascending, trans, and descending tissue samples versus goblet cells/crypt (17A and B) or CgA/crypt (17C and D). […] Error bars show SEM, N>3, *p<0.05, by two-tailed t-test.
FIGS. 14A-14C show quantification of mature goblet cells in the ascending (A) and transverse colon (B) of wild type and PKG2 knockout animals. […] The increase in goblet cells observed in the wild type animals was not observed in the PKG2-deficient animals, which indicates the involvement of PKG2 in this process.

[5] = system: DSS-induced colitis; test: DSS-induced murine colitis model; assay type: in vivo, mouse
Method: FIG. 20A is a line graph of days of treatment versus disease activity index (DAI). […] The animal weight and stool-composition (diarrhea and bleeding) were recorded daily and are shown as disease activity index. Error bars indicate SD (n=3) and asterisks denote statistical significance (p<0.05, t-test). FIG. 20B is a line graph of proximal, mid, and distal tissue samples versus TUNEL/Crypt. Some mice were sacrificed at Day 5 with DSS for pathological analysis. Descending colons of mice treated with control (Ctrl) and Vardenafil (Vard.) were harvested and stained for apoptosis (TUNEL). Positive cells were subjected to quantification and the quantified cells were graphed. Error bars indicate SEM (n=3) and asterisks denote statistical significance (p<0.05 t-test).
Control animals were injected with PBS vehicle. After 5 days the DSS was replaced with water. Incidence and severity of diarrhea and body weight were recorded daily and combined in an index of disease severity.
The best characterized mouse model of IBD involves administration of dextran sulfate-sodium (DSS) in the drinking water, and this is toxic specifically to luminal epithelial cells of the distal colon.

[6] = system: colon mucosa; test: Redox stress in colon mucosa by DCF fluorescence after IP treatment; assay type: in vivo, mouse; conditions: 4 h, p>0.05 by t-test (n=3)
Method: After 4 h the animals were sacrificed and the colon mucosa was harvested for analysis of redox stress using DCF fluorescence. Error bars indicate standard deviation (n=3), but p>0.05 by t-test (FIG. 15B)
(§1) Colons were removed from sacrificed animals and incubated with 20 μM DCF for 30 minutes, then homogenized and the fluorescence measured (at FITC wavelengths; 485/535 nm). Specimens were incubated directly (30 min time point), or incubated for 30 min or 90 min under standard tissue culture conditions before adding DCF for the final 30 min (60 and 120 min time points).

[7] = in water; cited from earlier work
[8] = in vivo; cited from earlier work
[9] = system: HCT116 colon cancer cells; test: cGMP content of colon cancer cells by competitive ELISA; conditions: colon cancer cell lines, 2 hours incubation
[10] = system: colon explants; test: Redox stress (DCF fluorescence) in colon explants; assay type: cell-based, mouse; conditions: 100 uM
Method: FIG. 15A is a bar graph showing DCF fluorescence of extracts from colon explants with (cGMP, open bars) or without (control, filled bars) cGMP treatment.
as §1

[11] = system: colon explants; test: Antioxidant gene expression in colon explants (RT-PCR, Western blotting); assay type: cell-based, mouse; conditions: 100 uM, 3-4 hours
Method: Explants of proximal and distal colon from mice were treated for 3-4 hours with 100 uM 8Br-cGMP and then the mucosa was harvested for analysis of antioxidant gene and protein expression by RT-PCR and Western blotting. Blots were reprobed for b-actin expression as a loading control.
In addition to attenuating proliferation, the activation of Foxo4 can upregulate antioxidant genes. To determine whether activation of endogenous PKG could affect the expression of antioxidant genes in the colon, explants of proximal and distal colon from mice were treated for 3-4 hours with 100 uM 8Br-cGMP and then the mucosa was harvested for analysis of antioxidant genes expression by RT-PCR or Western blotting. HPRT and b-actin were used as loading controls.

[12] = system: JNK; test: JNK-P in colon explants (immunoblotting); assay type: cell-based, mouse
Method: The relative expression of DUSP10 was measured by RT-PCR in wild type and knockout mice (Prkg2+/+ and Prkg2−/−), LS174T and HT29 colon cancer cells with or without PKG2 expression, and in colon explants treated with 8BrcGMP. Mucosa from different parts of the mouse digestive tract were analyzed by immunoblotting for JNKP, total JNK, DUSP10 and PKG2. Immunoblotting of ileum and proximal colon explants with or without 8Br-cGMP treatment to activate PKG2 was also performed.

CCCc1nc(C)c2c(=O)[nH]c(-c3cc(S(=O)(=O)N4CCN(CC)CC4)ccc3OCC)nn12 [Vardenafil, vardenafil]
cGMP levels in mouse colon explants [1]: significantly increase | cGMP in the proximal colon epithelium ([2]; IP, lesser extent in terminal ileum and distal colon): rapidly increased | intracellular cGMP levels in mouse colon mucosa ([2]; intraperitoneal injection, mucosa harvested 4 hours later): significant increase | crypt proliferation (BrdU, Ki-67) in colon [3]: reduced | epithelial cell death / apoptosis (TUNEL) in colon [3]: reduction; also recorded: reduced | mature goblet cell numbers in colon [3]: dramatic increase | epithelial cell death / apoptosis (TUNEL) in colon ([3]; listed as vardenafil): reduced | mature goblet cell numbers in colon ([3]; listed as vardenafil): significantly increased | increase in goblet cells ([4]; PKG2-deficient animals, 5 mg/kg IP b.i.d. 7 days): not observed | reduction in apoptosis ([4]; PKG2 knockouts, 5 mg/kg IP b.i.d. 7 days): not observed | homeostasis in Prkg2−/− animals ([4]; i.p. for several days): did not affect | death of animals ([5]; 5% DSS, n=4, half the untreated animals died): 25% | DSS induced apoptosis (TUNEL) ([5]; Day 5 with DSS): inhibited | DSS induced activation of JNK ([5]; descending colon, JNK-phospho T183/Y185): inhibited | DUSP10 levels in the colon mucosa ([5]; wild type mice): increased | redox stress levels in the colon mucosa (DCF fluorescence) [6]: partly mimic antioxidant effects of exogenous cGMP; also recorded: could indeed affect redox stress levels | Solubility [7]: 110 µg/mL (≈ 0.225 mM) | t1/2 [8]: 4 to 5 h | intracellular cGMP levels [9]: significantly increased

CN1CC(=O)N2[C@H](c3ccc4c(c3)OCO4)c3[nH]c4ccccc4c3C[C@@H]2C1=O [Tadalafil, tadalafil]
t1/2 [8]: 17.5 h

Nc1nc2c(nc(Br)n2[C@@H]2O[C@@H]3COP(=O)(O)O[C@H]3[C@H]2O)c(=O)[nH]1 [8Br-cGMP]
redox stress (DCF fluorescence) in colon explants [10]: decreased | antioxidant gene expression in colon explants [11]: broad increase | basal activated JNK-P levels in colon explants [12]: decrease

CCCc1nn(C)c2c(=O)nc(-c3cc(S(=O)(=O)N4CCN(C)CC4)ccc3OCC)[nH]c12 [Sildenafil, sildenafil]
Solubility [7]: 3500 µg/mL (≈ 7.37 mM) | t1/2 [8]: 3 to 5 h | intracellular cGMP levels [9]: significantly increased
